Laboratory results reported in patent publication US9926281B2 (priority 2014, dated 2018).

Assays:
rnADAMTS-5 (1-564-6H) = rnADAMTS-5 (1-564-6H) (Rattus norvegicus, UniProt Q6TY19); conditions: read-out: Rat ADAMTS-5 potency IC50
human ADAMTS-5 = human ADAMTS-5 (Homo sapiens (Human), UniProt Q9UNA0); conditions: read-out: hADAMTS-5 potency IC50
Procedure: Finally, the fluorescence is read on the Envision (Perkin Elmer) after an incubation of 90 min at 37° C.

human TACE = human TACE (Homo sapiens (Human), UniProt P78536); conditions: read-out: TACE potency IC50
human MMP13 = human MMP13 (Homo sapiens (Human), UniProt P45452); conditions: read-out: hMMP-13 potency IC50
Procedure: Human MMP13 is preactivated by incubated the enzyme in the same buffer complemented with 1 mM freshly prepared p-Aminophenylmercuric acetate (AMPA) for 1 hour at 37° C.

Sequence of human TACE (P78536 whole entry, looked up, change not shown): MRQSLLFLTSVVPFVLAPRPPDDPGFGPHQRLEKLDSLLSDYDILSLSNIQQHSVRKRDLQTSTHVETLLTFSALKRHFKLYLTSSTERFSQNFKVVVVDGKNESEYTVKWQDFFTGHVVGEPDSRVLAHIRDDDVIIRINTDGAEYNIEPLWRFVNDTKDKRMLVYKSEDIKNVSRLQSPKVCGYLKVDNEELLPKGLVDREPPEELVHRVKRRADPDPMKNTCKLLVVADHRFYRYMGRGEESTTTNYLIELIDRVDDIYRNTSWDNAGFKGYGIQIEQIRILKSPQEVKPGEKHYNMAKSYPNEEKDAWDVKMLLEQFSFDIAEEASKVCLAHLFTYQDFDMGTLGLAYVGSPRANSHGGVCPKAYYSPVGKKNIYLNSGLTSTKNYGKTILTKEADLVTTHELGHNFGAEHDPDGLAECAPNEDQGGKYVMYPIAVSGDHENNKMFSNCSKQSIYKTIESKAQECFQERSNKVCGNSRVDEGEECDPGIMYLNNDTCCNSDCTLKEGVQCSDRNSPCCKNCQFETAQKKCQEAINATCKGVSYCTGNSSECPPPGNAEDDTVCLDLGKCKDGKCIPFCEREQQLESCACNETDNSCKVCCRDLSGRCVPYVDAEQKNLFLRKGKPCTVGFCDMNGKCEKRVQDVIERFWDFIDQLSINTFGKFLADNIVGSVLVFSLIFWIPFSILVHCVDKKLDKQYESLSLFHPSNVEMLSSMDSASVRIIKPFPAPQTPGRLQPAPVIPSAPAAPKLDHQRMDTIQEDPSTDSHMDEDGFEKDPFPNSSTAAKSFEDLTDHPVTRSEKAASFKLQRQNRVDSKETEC
Sequence of human ADAMTS-5 (Q9UNA0 262-930): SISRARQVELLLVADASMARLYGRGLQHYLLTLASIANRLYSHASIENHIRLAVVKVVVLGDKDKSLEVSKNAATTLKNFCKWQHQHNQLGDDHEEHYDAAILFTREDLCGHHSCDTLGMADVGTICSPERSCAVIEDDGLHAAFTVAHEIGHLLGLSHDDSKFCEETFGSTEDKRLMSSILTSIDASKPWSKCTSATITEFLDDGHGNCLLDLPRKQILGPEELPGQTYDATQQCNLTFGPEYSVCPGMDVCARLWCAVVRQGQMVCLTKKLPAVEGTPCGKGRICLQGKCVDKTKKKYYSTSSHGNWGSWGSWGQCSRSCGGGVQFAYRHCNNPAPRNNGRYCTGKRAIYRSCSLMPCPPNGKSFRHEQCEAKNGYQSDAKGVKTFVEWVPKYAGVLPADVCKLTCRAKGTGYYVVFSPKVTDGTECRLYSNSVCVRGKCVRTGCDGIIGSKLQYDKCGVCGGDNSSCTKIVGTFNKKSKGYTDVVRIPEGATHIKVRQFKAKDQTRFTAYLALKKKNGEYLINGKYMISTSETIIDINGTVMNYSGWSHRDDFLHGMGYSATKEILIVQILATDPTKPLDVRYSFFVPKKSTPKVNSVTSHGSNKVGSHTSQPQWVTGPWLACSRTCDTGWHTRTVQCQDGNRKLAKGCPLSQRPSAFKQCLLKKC

| SMILES | IC50 (rnADAMTS-5 (1-564-6H)) [nM] | IC50 (human ADAMTS-5) [nM] | IC50 (human TACE) [nM] | IC50 (human MMP13) [nM] |
| --- | --- | --- | --- | --- |
| C[C@@H](C[C@@]1(C)NC(=O)NC1=O)C(=O)N1CCN(c2ccc(F)c(Cl)c2)[C@@H](C)C1 [Cpd 265] | 22 | 18 | > 4000 | – |
| O=C1NC(=O)C(CCC(=O)N2CCN(c3cccc(Cl)c3)CC2)(C2CC2)N1 (stereo not drawn) [compound 34, 5-[3-[4-(3-chlorophenyl)piperazin-1-yl]-3-oxo-propyl]-5-cyclopropyl-imidazolidine-2,4-dione] | 41 | – | > 4000 | 3210 |
| CC(C)C1(CCC(=O)N2CCN(c3cccc(Cl)c3)CC2)NC(=O)NC1=O (stereo not drawn) [compound 53, 5-[3-[4-(3-chlorophenyl)piperazin-1-yl]-3-oxo-propyl]-5-isopropyl-imidazolidine-2,4-dione] | 179 | – | > 4000 | > 20000 |
| Cc1ccc(Cl)cc1N1CCN(C(=O)CCC2(c3ccc(Cl)cc3)NC(=O)NC2=O)CC1 (stereo not drawn) [compound 75, 5-[3-[4-(5-chloro-2-methyl-phenyl)piperazin-1-yl]-3-oxo-propyl]-5-(4-chlorophenyl)imidazolidine-2,4-dione] | 141 | – | 550 | > 20000 |
| Cc1c(Cl)cccc1N1CCN(C(=O)CCC2(C3CC3)NC(=O)NC2=O)CC1 (stereo not drawn) [compound 98, 5-[3-[4-(3-chloro-2-methyl-phenyl)piperazin-1-yl]-3-oxo-propyl]-5-cyclopropyl-imidazolidine-2,4-dione] | 82 | – | > 4000 | > 20000 |
| Cc1c(F)cccc1N1CCN(C(=O)CCC2(C3CC3)NC(=O)NC2=O)CC1 (stereo not drawn) [compound 99, 5-cyclopropyl-5-[3-[4-(3-fluoro-2-methyl-phenyl)piperazin-1-yl]-3-oxo-propyl]imidazolidine-2,4-dione] | 116 | – | > 14700 | > 20000 |
| Cc1c(Cl)cccc1N1CCN(C(=O)CCC2(c3cccnc3)NC(=O)NC2=O)CC1 (stereo not drawn) [compound 102, 5-[3-[4-(3-chloro-2-methyl-phenyl)piperazin-1-yl]-3-oxo-propyl]-5-(3-pyridyl)imidazolidine-2,4-dione] | 94 | – | 3400 | > 20000 |
| O=C1NC(=O)C(CCC(=O)N2CCN(c3cccc(F)c3)CC2)(c2cccnc2)N1 (stereo not drawn) [compound 112, 5-[3-[4-(3-fluorophenyl)piperazin-1-yl]-3-oxo-propyl]-5-(3-pyridyl)imidazolidine-2,4-dione] | 39 | – | > 4000 | 1880 |
| O=C1NC(=O)C(CCC(=O)N2CCN(c3cccc(F)c3)CC2)(C2CC2)N1 (stereo not drawn) [compound 115, 5-cyclopropyl-5-[3-[4-(3-fluorophenyl)piperazin-1-yl]-3-oxo-propyl]imidazolidine-2,4-dione] | 38 | – | > 20000 | > 4000 |
| Cc1ccc(F)cc1N1CCN(C(=O)CCC2(C3CC3)NC(=O)NC2=O)CC1 (stereo not drawn) [compound 116, 5-cyclopropyl-5-[3-[4-(5-fluoro-2-methyl-phenyl)piperazin-1-yl]-3-oxo-propyl]imidazolidine-2,4-dione] | 29 | – | > 4640 | > 20000 |
| CS(=O)(=O)c1ccc(C2(CCC(=O)N3CCN(c4cccc(Cl)c4)CC3)NC(=O)NC2=O)cc1 (stereo not drawn) [compound 124, 5-[3-[4-(3-chlorophenyl)piperazin-1-yl]-3-oxo-propyl]-5-(4-methylsulfonylphenyl)imidazolidine-2,4-dione] | 37 | – | 880 | 1280 |
| C[C@H]1CN(C(=O)CCC2(C3CC3)NC(=O)NC2=O)CCN1c1ccccc1 (stereo partly drawn) [compound 135, 5-cyclopropyl-5-[3-[(3S)-3-methyl-4-phenyl-piperazin-1-yl]-3-oxo-propyl]imidazolidine-2,4-dione] | 125 | – | > 20000 | > 20000 |
| C[C@H]1CN(C(=O)CCC2(c3cccnc3)NC(=O)NC2=O)CCN1c1ccccc1 (stereo partly drawn) [compound 136, 5-[3-[(3S)-3-methyl-4-phenyl-piperazin-1-yl]-3-oxo-propyl]-5-(3-pyridyl)imidazolidine-2,4-dione] | 242 | – | > 20000 | > 20000 |
| C[C@H]1CN(C(=O)CCC2(C3CC3)NC(=O)NC2=O)CCN1c1cc(Cl)cc(Cl)c1 (stereo partly drawn) [compound 142, 5-cyclopropyl-5-[3-[(3S)-4-(3,5-dichlorophenyl)-3-methyl-piperazin-1-yl]-3-oxo-propyl]imidazolidine-2,4-dione] | 54 | – | > 4000 | > 20000 |
| Cc1ccc(F)cc1N1CCN(C(=O)CCC2(C)NC(=O)NC2=O)C[C@@H]1C (stereo partly drawn) [compound 145, 5-[3-[(3S)-4-(5-fluoro-2-methyl-phenyl)-3-methyl-piperazin-1-yl]-3-oxo-propyl]-5-methyl-imidazolidine-2,4-dione] | 563 | – | > 4000 | > 20000 |
| COc1ccccc1C1(CCC(=O)N2CCN(c3cccc(Cl)c3)CC2)NC(=O)NC1=O (stereo not drawn) [compound 146, 5-[3-[4-(3-chlorophenyl)piperazin-1-yl]-3-oxo-propyl]-5-(2-methoxyphenyl)imidazolidine-2,4-dione] | 133 | – | 1580 | 3880 |
| C[C@H]1CN(C(=O)CCC2(C3CC3)NC(=O)NC2=O)CCN1c1ccc(Cl)cc1 (stereo partly drawn) [compound 147, 5-[3-[(3S)-4-(4-chlorophenyl)-3-methyl-piperazin-1-yl]-3-oxo-propyl]-5-cyclopropyl-imidazolidine-2,4-dione] | 99 | – | > 4000 | > 4000 |
| Cc1ccc(F)cc1N1CCN(C(=O)CCC2(C3CC3)NC(=O)NC2=O)C[C@@H]1C (stereo partly drawn) [compound 148, 5-cyclopropyl-5-[3-[(3S)-4-(5-fluoro-2-methyl-phenyl)-3-methyl-piperazin-1-yl]-3-oxo-propyl]imidazolidine-2,4-dione] | 97 | – | > 4000 | > 20000 |
| C[C@H]1CN(C(=O)CCC2(C3CC3)NC(=O)NC2=O)CCN1c1cccc(F)c1 (stereo partly drawn) [compound 151, 5-cyclopropyl-5-[3-[(3S)-4-(3-fluorophenyl)-3-methyl-piperazin-1-yl]-3-oxo-propyl]imidazolidine-2,4-dione] | 83 | – | > 20000 | > 20000 |
| Cc1c(Cl)cc(Cl)cc1N1CCN(C(=O)CCC2(C)NC(=O)NC2=O)C[C@@H]1C (stereo partly drawn) [compound 178, 5-[3-[(3S)-4-(3,5-dichloro-2-methyl-phenyl)-3-methyl-piperazin-1-yl]-3-oxo-propyl]-5-methyl-imidazolidine-2,4-dione] | 344 | 577 | – | – |
| O=C1NC(=O)C(CCC(=O)N2CCN(c3cccc(Cl)c3)CC2)(CNCc2ccccc2)N1 (stereo not drawn) [compound 184, 5-[(benzylamino)methyl]-5-[3-[4-(3-chlorophenyl)piperazin-1-yl]-3-oxo-propyl]imidazolidine-2,4-dione] | 280 | 272 | – | – |
| N#Cc1cccc(N2CCN(C(=O)CCC3(C4CC4)NC(=O)NC3=O)CC2)c1 (stereo not drawn) [compound 195, 3-[4-[3-(4-cyclopropyl-2,5-dioxo-imidazolidin-4-yl)propanoyl]piperazin-1-yl]benzonitrile] | 262 | 318 | – | – |
| COC(CC1(C)NC(=O)NC1=O)C(=O)N1CCN(c2cccc(F)c2)[C@@H](C)C1 (stereo partly drawn) [compound 294, 5-[3-[(3S)-4-(3-fluorophenyl)-3-methyl-piperazin-1-yl]-2-methoxy-3-oxo-propyl]-5-methyl-imidazolidine-2,4-dione] | 128 | 134 | > 20000 | – |
| COCC1(CC(C)C(=O)N2CCN(c3cc(Cl)cc(Cl)c3)[C@@H](C)C2)NC(=O)NC1=O (stereo partly drawn) [compound 429, 5-(3-((S)-4-(3,5-dichlorophenyl)-3-methylpiperazin-1-yl)-2-methyl-3-oxopropyl)-5-(methoxymethyl)imidazolidine-2,4-dione] | – | 53 | > 3980 | > 20000 |
| COCC1(CC(C)C(=O)N2CCN(c3cccc(Cl)c3C)CC2)NC(=O)NC1=O (stereo not drawn) [compound 433, 5-(3-(4-(3-chloro-2-methylphenyl)piperazin-1-yl)-2-methyl-3-oxopropyl)-5-(methoxymethyl)imidazolidine-2,4-dione] | – | 21 | 1250 | > 20000 |
| CC(CC1(c2ccccn2)NC(=O)NC1=O)C(=O)N1CCN(c2cc(Cl)cc(Cl)c2)CC1 (stereo not drawn) [compound 434, 5-(3-(4-(3,5-dichlorophenyl)piperazin-1-yl)-2-methyl-3-oxopropyl)-5-(pyridin-2-yl)imidazolidine-2,4-dione] | – | 20 | 106 | 766 |
| CCC(CC1(C)NC(=O)NC1=O)C(=O)N1CCN(c2cc(Cl)cc(Cl)c2)CC1 (stereo not drawn) [compound 435, 5-(2-(4-(3,5-dichlorophenyl)piperazine-1-carbonyl)butyl)-5-methylimidazolidine-2,4-dione] | – | 15 | 225 | 1220 |
| COCC(CC1(C)NC(=O)NC1=O)C(=O)N1CCN(c2cc(Cl)cc(Cl)c2)CC1 (stereo not drawn) [compound 436, 5-(3-(4-(3,5-dichlorophenyl)piperazin-1-yl)-2-(methoxymethyl)-3-oxopropyl)-5-methylimidazolidine-2,4-dione] | – | 22 | 368 | > 4000 |
| CC(C)C(CC1(C)NC(=O)NC1=O)C(=O)N1CCN(c2cc(Cl)cc(Cl)c2)CC1 (stereo not drawn) [compound 438, 5-(2-(4-(3,5-dichlorophenyl)piperazine-1-carbonyl)-3-methylbutyl)-5-methylimidazolidine-2,4-dione] | – | 56 | 1280 | 1850 |
| COC(CC1(C)NC(=O)NC1=O)C(=O)N1CCN(c2cc(Cl)cc(Cl)c2)CC1 (stereo not drawn) [compound 439, 5-(3-(4-(3,5-dichlorophenyl)piperazin-1-yl)-2-methoxy-3-oxopropyl)-5-methylimidazolidine-2,4-dione] | – | 43 | 787 | > 4000 |
